The text below walks through data of US20080050413A1, “Medical stent provided with a combination of melatonin and paclitaxel” (priority 2006, published 2008).

The test system of series [1] is HCAEC. As to the kind of experiment: Chemotaxis towards VEGF-A, modified Boyden chamber, HCAEC. It counts as cell-based, human. The conditions noted are these: 2 mM Melatonin for 48 hours; VEGF-A 10 ng/ml; migration 4 hours; performed only once. How it is done:
Chemotaxis experiments were performed using a modified Boyden chamber. The apparatus consists of two multi-well chambers separated by a filter containing pores of uniform size. A solution containing a chemokine or chemotactic factor is placed in the lower/bottom chamber and a cell suspension is placed in the upper chamber. Cells can migrate through the pores across the filter and towards the chemoattractant in the lower chamber. Cells that migrated across the filter and remain attached to the lower side of the membrane are counted. Data are expressed in terms of migration index: the number of cells that migrated in response to agonist stimulation compared to the number of cells that migrated randomly, i.e. to medium only. Chemotaxis experiments so far were only performed with HCAEC. For these cells a 25×80 mm polycarbonate filter, […] (PVP) free was used (Whatman) with a pore size of […]. Before migration the filter was coated with collagen. Endothelial cells were incubated with Melatonin at 2 mM prior to and during migration. […] Cells were stimulated with VEGF-A at 10 ng/ml. Cells were allowed to migrate for 4 hours at 37° C./5% CO2. At the end of migration, cells were fixed on the filter, stained with Giemsa and counted using a regular optic microscope.

For series [2], the system named is human coronary artery endothelial cells (HCAEC). Briefly: CellTiter 96 One solution (MTS) cell proliferation assay, HCAEC. It counts as cell-based. On the procedure: (§1) Human coronary artery endothelial cells (HCAEC) were purchased from Cambrex and human coronary artery smooth muscle cells (HCASMC) were purchased from Promocell. Cells were used for experiments between passage 4 and passage 12. Both cell types were cultured in their respective complete culture medium with the following composition: HCAEC: Endothelial Growth Media-2 MV: hEGF, Hydrocortisone, GA-1000, FBS 5%, VEGF, hFGF-B, R3-IGF-1, Ascorbic Acid Medium was changed every other day. 24 hours prior to growth factor stimulation, the medium was replaced by fresh culture medium, however, without growth factors to increase the cellular sensitivity to the subsequent growth factor stimulation. Subconfluent HCAEC were stimulated with 10 ng/ml of VEGF-A, whereas subconfluent HCASMC were stimulated with 10 ng/ml of PDGF-BB. Likewise, both cell types were stimulated with 25% of human serum (final concentration). All proliferation and cytotoxicity experiments were performed on cells cultured on 96 well plates (Costar). The CellTiter 96 One solution cell proliferation assay from Promega was used to assess cell proliferation in a 96-well plate. This assay makes use of the MTS tetrazolium compound as a cellular substrate. MTS is bioreduced by living cells into a colored formazan product that is soluble in tissue culture medium and absorbs light at 490 nm. The quantity of formazan produced is directly proportional to the number of living cells in culture. After 24 h stimulation, 20 μl of MTS reagent was added to the cells cultured in 100 μl of medium per well. After 2 to 4 hours of incubation at 37° C., 5% CO2, the absorbance at 490 nm was recorded using a 96-well plate reader (Tecan).

Series [3] relates to HCAEC. As to the kind of experiment: CytoTox-ONE LDH release cytotoxicity assay, HCAEC. It counts as cell-based, human. The conditions noted are these: 48 hours, Melatonin 0.2 to 6 mM. How it is done: (§2) Cytotoxicity experiments were performed with cells cultured on 96-well plates. The CytoTox-ONE™ Assay from Promega was used to assess the membrane integrity of cells. This test is based on a fluorometric method to estimate the number of non viable cells present in multiwell plates by measuring the release of lactate dehydrogenase (LDH) from cells with damaged membranes. Subconfluent cells were incubated for 48 hours with Melatonin at concentrations between 0.2 and 6 mM. During the 48 h Melatonin incubation, the medium was not changed to avoid removal of any detached cells. As a positive control three wells of untreated cells were incubated with lysis buffer (delivered with the assay) before measurement. At the end of the Melatonin incubation period, a volume of CytoTox-ONE reagent equal to the volume of cell culture medium present in each well was added. After 10 min incubation at 22° C. (room temperature), 50 μl of stop solution was added per 100 μl of CytoTox-ONE reagent added. The plate was shaken for 10 seconds and fluorescence was recorded with an excitation wavelength of 560 nm and an emission wavelength of 590 nm (Spectramax M2 fluorescence plate reader, Molecular devices).

Series [4] concerns human coronary artery smooth muscle cells (HCASMC). As to the kind of experiment: CellTiter 96 One solution (MTS) cell proliferation assay, HCASMC. It counts as cell-based. How it is done:
as §1, with “HCASMC: Smooth Muscle Cell” for “HCAEC: Endothelial”, “Medium 2: Epidermal Growth Factor (EGF), basic Fibroblast Factor (FGF), Insulin, Fetal Calf Serum (FCS)” for “Media-2 MV: hEGF, Hydrocortisone, GA-1000, FBS”, “Amphotericin B, Gentamicin.” for “VEGF, hFGF-B, R3-IGF-1, Ascorbic Acid”

The subject of series [5] is HUVEC (Human Umbilical Vein Endothelial Cells). Briefly: [3H]-thymidine incorporation, HUVEC stimulated with VEGF-A. It counts as cell-based. The settings on record: VEGF A 10 ng/ml 24 hours. How it is done:
To investigate, whether melatonin has similar effects on other cell types, HUVEC (Human Umbilical Vein Endothelial Cells, Promocell) were tested. HUVEC were cultured in the corresponding complete medium (Endothelial Cell Growth Medium: ECGS/H 0.4%, Fetal Calf Serum 2%, Epidermal Growth Factor 0.1 ng/ml, Hydrocortisone 1 μg/ml, basic Fibroblast Factor 1 ng/ml, Amphotericin B 50 ng/ml, Gentamicin 50 μg/ml). 24 hours prior to stimulation, the medium was replaced by a medium containing 2% serum and antibiotics, but devoid of the other complements. Then, HUVEC were stimulated with 10 ng/ml of VEGF-A for 24 hours. HUVEC were incubated for 48 hours with Melatonin and stimulated for 24 hours with VEGF-A at 10 ng/ml. After 24 hours of stimulation, the cells were incubated with radioactive [^3H]-thymidine. Two hour later, the medium was removed and cell-bound DNA was precipitated using 5% TCA (Trichloroacetic acid). Then, [^3H]-thymidine incorporation was measured using a beta-counter.

The next series has as its system HCASMC. As to the kind of experiment: CytoTox-ONE LDH release cytotoxicity assay, HCASMC. It counts as cell-based, human. The conditions noted are these: 48 hours, Melatonin 0.2 to 6 mM. How it is done:
as §2
On the technique in general: LDH leaks from cells whose membrane has failed.

Values joined by “and” are separate entries in the source; they are usually repeats but may differ in a detail not shown here. Identical values can stand only once.

With `COc1ccc2[nH]cc(CCNC(C)=O)c2c1` [Melatonin, N-acetyl-5-methoxytryptamine], the “effect on chemotactic response towards VEGF-A” value in the series on HCAEC [1] is given as “did not have any significant effect”. Further, the “concentration at which proliferation is strongly inhibited” value in series [2] (HCAEC) and in series [4] (HCASMC) was “higher than 0.2 mM” throughout. Besides, the “effect on cell number” value in series [2] (Melatonin between 1 mM and 6 mM) is given as “dramatic decrease in cell number”. Further, in series [2] (tested 1 μM to 6 mM), the “concentration of maximal effect” value is 3 mM and 6 mM. The “sensitivity of HCAEC to Melatonin” value in series [2] (up to 0.1 mM Melatonin) is given as “not sensitive”. Moreover, the “cytotoxic effect (LDH release)” value in the series with HCAEC [3] and with HCASMC was “does not induce any detectable cytotoxic effect” each time. Also, the “effect on number of smooth muscle cells” value in series [4] (1 mM Melatonin, 24 hours pre-treatment, PDGF BB 10 ng/ml 24 h) is given as “significant decrease in the number of smooth muscle cells”. For the same compound, the “effect on proliferation of HCASMC” value in series [4] (Melatonin up to 0.1 mM, PDGF BB 10 ng/ml 24 h) is “no significant effect”. In addition, in series [4] (tested up to 10 mM), the “concentration of maximal inhibitory effect” value came to 5 mM. The “effect on HUVEC ([3H]-thymidine incorporation)” value in series [5] (0.2 mM Melatonin, 48 hours) is “inhibitory effect”. For the same compound, the “VEGF-A induced [3H]-thymidine incorporation” value in series [5] (Melatonin 48 hours) is on record as “completely inhibited”.
